Our source for the melting point values is a melting point compilation (Tetko et al.).

Each structure is given as a SMILES string.

For orientation: melting point means the temperature of the solid-liquid transition.

In the case of `O=C(O)C=Cc1ccc(-c2ccc(F)cc2F)o1`, the melting point was in the range of 218 to 220 °C.

As for `FC(=C(F)C(F)(F)F)C(F)(F)F`, the melting point was -129 °C.

Compound `N#Cc1ccc(F)cc1C#N` came in with a melting point of 101 °C.

With `CCOC(=O)c1nn(-c2ccc(C)cc2)c(C)c1C(=O)C1=NOC2C(=O)N(c3ccc(C(=O)O)cc3)C(=O)C12` (configuration not stated), the melting point came out at 281 °C.

The compound `CC=C1CC(C)C(O)(CO)C(=O)OCC2=CCN3CCC(OC1=O)C23` (configuration not stated) returned a melting point of 212 °C.

`COc1cccc(CO)c1OC`: the melting point was in the range of 48 to 51 °C.

With `S=c1sccs1`, the melting point turned out to be 49 °C.

`CC(=O)C(C)(CCC(=O)O)CCC(=O)O` yielded a melting point of 123 °C.

Turning to `COC(=O)c1sccc1Cl`, the melting point lay in the range of 39 to 40 °C.

Regarding `Ic1ccc(-n2cccn2)cc1`, the melting point fell in the range of 91 to 92 °C.

In the case of `NC(=S)Nc1ccccc1Cl`, the melting point was determined as 146 °C.

Consider `Cc1ccc(C#N)cn1`, for which the melting point was found to be 85 °C.

In turn, `CN(NC=O)c1ccccc1` had a melting point of 47 °C.

`CS(=O)(=O)CC(=O)O`: the melting point is 117 °C.

Turning to `c1ccc(Cc2c3ccccc3c(Cc3ccccc3)c3ccccc23)cc1`, the melting point stood at 246 °C.

`O=C=Nc1ccccc1[N+](=O)[O-]` had a melting point of 41 °C.

With `CC/C=C(\C)C(=O)O`, the melting point worked out at 24.4 °C.

Compound `CCN(CC)c1ccc(N=Nc2ccccc2)cc1` came in with a melting point of 97.5 °C.

Compound `COCC(C)c1c(O)c2c(c(OC)c1OC)C1(C)CCCC(C)(C)C1C(=O)C2=O` (configuration not stated) displayed a melting point of 90 to 92 °C.

The compound `CC(=O)c1ccc(C)c(F)c1` returned a melting point of 33 °C.

For the compound `CC(=O)c1cc(C(C)(C)C)c(O)c(C(C)(C)C)c1`, the melting point came to 147 °C.

The compound `CC(=O)OCC1OC(OC2OC=CC3C(OC(=O)c4ccc(OC(C)=O)cc4)C4OC4(COC(C)=O)C23)C(OC(C)=O)C(OC(C)=O)C1OC(C)=O` (configuration not stated) displayed a melting point of 135 °C.

With `C=CC=C(C=C1C(=O)NN=C1c1c(O)c2ccccc2n(C)c1=O)C(Cl)=CC`, the melting point stood at 260 °C.

With `Brc1ccc(-c2nc(-c3ccccc3)c(-c3ccccc3)[nH]2)cc1`, the melting point lay within 252 to 260 °C.

Turning to `CC(C)(O)C#Cc1ccccn1`, the melting point was 83 °C.

`O=C1C=C(N2CC2)C(=O)C(N2CC2)=C1N1CC1` displayed a melting point of 163 °C.

`CC(C)(C)c1ccc(N)c(N)c1` showed a melting point of 98 to 100 °C.

In turn, `Cn1nc(O)cc1C(F)(F)F` registered a melting point of 114 to 115 °C.

Consider `N#CC1CNc2ccccc2O1` (configuration not stated), for which the melting point stood at 63 °C.

With `O=C(O)C=Cc1c(F)c(F)c(F)c(F)c1F`, the melting point was determined as 153 °C.

As for `CCCCCCOC(=O)c1ccccc1C(=O)OCCCCCC`, the melting point was -58 °C.

Turning to `COc1ccc(CNC(N)=S)cc1`, the melting point lay within 135 to 137 °C.

`Cc1ccc2c(C)cccc2c1C` registered a melting point of 33.5 °C.

Consider `CCCCCCCCCCCCCCS`, for which the melting point amounted to 7 °C.

Compound `O=[N+]([O-])c1ccccc1Sc1ccccc1` had a melting point of 82 °C.

In the case of `O=C(N[C@H](Cc1cccc(Br)c1)C(=O)O)OCC1c2ccccc2-c2ccccc21`, the melting point was determined as 146 °C.

In turn, `Cc1ccc(C=Nc2n[nH]c(N=Cc3ccc(C)cc3)c2Cc2ccc(Cl)cc2)cc1` came in with a melting point of 248 to 250 °C.

In turn, `Nc1ccccc1-c1ccccc1N` returned a melting point of 81 °C.

As to `O=C(c1cccs1)c1noc(-c2ccc3ccccc3c2)c1S(=O)(=O)c1ccccc1`, the melting point turned out to be 128 °C.

On to `Clc1ccc(P(c2ccc(Cl)cc2)c2ccc(Cl)cc2)cc1`, for which the melting point is 103 °C.

`CC(CN1CC(=O)NC(=O)C1)N1CC(=O)NC(=O)C1` (configuration not stated) showed a melting point of 238 °C.

The compound `CC(=O)OCC(=O)C1CCC2C3CC=C4CC(O)CCC4(C)C3CCC12C` (configuration not stated) showed a melting point of 184 °C.

As for `C1CCN(CCN2CCCCC2)CC1`, the melting point was -0.5 °C.

With `CC(C)OC(=O)C(C(=O)OC(C)C)=C1SCCS1`, the melting point worked out at 54.9 °C.

The compound `OCC(F)(F)C(F)(F)CO` gave a melting point of 85 to 87 °C.

On to `CC1COC(Cn2cncn2)(c2ccc(Oc3ccc(Cl)cc3)cc2Cl)O1` (configuration not stated), for which the melting point stood at 76 °C.

As for `CC1=CCC2CC1C2(C)C` (racemic), the melting point was -55 °C.

In turn, `CON=C(c1cc2ccccc2o1)c1cc2ccccc2o1` registered a melting point of 131 to 132 °C.

The compound `COc1cc(NC(=S)N(C)C)c(C(c2ccc(C)o2)c2ccc(C)o2)cc1OC` yielded a melting point of 163 °C.

In the case of `CCCCc1ccc2ccccc2c1`, the melting point is -5 °C.

As to `COC(=O)c1cc2ccccc2s1`, the melting point was 70 °C.

`OCC1NC(CO)C(O)C1O` (configuration not stated) came in with a melting point of 102 °C.

`CC(=O)Nc1ccc(Br)c(Cl)c1`: the melting point was in the range of 125 to 128 °C.

On to `FC(F)(F)c1nn2c(=S)nc(-c3ccccc3)nc2s1`, for which the melting point is 222 °C.

Take `COc1ccc(O)cc1C(C)(C)C`: the melting point is 48 °C.

`CC(=O)O[C@H]1[C@H](OC(C)=O)[C@@H](S(=O)(=O)c2ccccc2)OC[C@H]1OC(C)=O` returned a melting point of 145 to 148 °C.

Consider `COCCl`, for which the melting point was -104 °C.

Regarding `N#CC1(c2ccc(Cl)cc2)CCCCC1`, the melting point is 88 to 92 °C.

`Cc1nccn1-c1ccc(CN)cc1` registered a melting point of 90.5 to 91.5 °C.

As to `CC(=O)C=C(C)C`, the melting point is -53 °C.

Consider `CCc1ccc2cc3ccccc3cc2c1`, for which the melting point turned out to be 152 °C.

`CCOC(=S)SSC(=S)OCC`: the melting point was 30 °C.

The compound `Clc1cccc(C(Cl)(Cl)Cl)n1` yielded a melting point of 63 °C.

`COC(=O)C=Cc1ccc(C=CC(=O)OC)c(N)c1` displayed a melting point of 159 °C.

The compound `CC(=O)c1csc2ccc(Br)cc12` showed a melting point of 87 to 90 °C.

`CSc1[nH]nc(N)c1C#N` came in with a melting point of 190 °C.

`CCCCC(CC)(CO)CO`: the melting point was determined as 43.8 °C.

On to `FC(F)(F)c1cc(C=Cc2noc(CCl)n2)cc(C(F)(F)F)c1`, for which the melting point fell in the range of 106 to 108 °C.

`N#CC1(c2ccccc2)CCC(=O)CC1` gave a melting point of 115 °C.

For the compound `Clc1cc(Cl)c2oc3cc(Cl)c(Cl)cc3c2c1`, the melting point turned out to be 202 °C.

`CC(C(=O)O)C(=O)O` had a melting point of 129 to 136 °C.

For `NC(=O)C(N)c1ccccc1` (configuration not stated), the melting point lay in the range of 125 to 129 °C.

On to `CC(C)(C)OC(=O)N1CSC[C@H]1C(=O)O`, for which the melting point lay in the range of 132 to 136 °C.

`O=C(O)c1ccc(-c2ccc(Cl)cc2)o1` came in with a melting point of 198 to 201 °C.

Turning to `CC(CC(C)(C)C)CC(C)(C)C`, the melting point was -67 °C.

Consider `CC(=O)Nc1ccccc1CCNC(=O)c1ccc2ccccc2c1O`, for which the melting point was in the range of 225 to 227 °C.

Take `NN1C(=O)c2ccccc2C1=O`: the melting point lay in the range of 200 to 202 °C.

In turn, `O=c1ccnc[nH]1` had a melting point of 163 to 168 °C.

The compound `NC(=S)Nc1ccc(Cl)c(Cl)c1` returned a melting point of 210 to 213 °C.

With `Cc1ccc(C)c2c1C(=O)N(C)C2=O`, the melting point turned out to be 170 °C.

In turn, `COc1ccc2c(c1)CCc1ccc3c(c1-2)c(=O)n(-c1ccccc1)n3C` showed a melting point of 162 °C.

In turn, `CNc1ccc(NC)c2c1C(=O)c1ccccc1C2=O` displayed a melting point of 220 °C.

With `Cc1ccc(O)c(C(O)Cc2ccccc2)c1` (configuration not stated), the melting point turned out to be 83 °C.

For `O=C(Cl)c1ccc2snnc2c1`, the melting point is 93 to 96 °C.

In turn, `Cc1c(Cl)cccc1C#N` displayed a melting point of 21.5 °C.

Compound `N[C@@H]1CCCC[C@H]1N` gave a melting point of 40 to 45 °C.

Consider `CCCCCCCC(=O)NO`, for which the melting point was 78.8 °C.

As to `O=[N+]([O-])c1ccc(-c2ccccc2)cc1`, the melting point was found to be 114 °C.

`CCCCCCCCC(=O)OCCCCCCC`: the melting point was -15.5 °C.

In turn, `O=C=Nc1ccc(-c2ncccn2)cc1` showed a melting point of 85.5 to 87.5 °C.

`CCCCCCC(=O)OC`: the melting point was -56 °C.

As to `CC(C)(C)c1cc([N+](=O)[O-])c(O)c([N+](=O)[O-])c1`, the melting point stood at 95 °C.

As to `Cc1cc(CC(C)CC(C)(C)C)n(O)c(=O)c1` (configuration not stated), the melting point worked out at 108 °C.

In the case of `Cc1cc(N=Nc2ccccc2)c(C(C)C)cc1N=Nc1ccccc1`, the melting point is 108 °C.

Take `CC(CCC(=O)O)C1CCC2C3CC(O)C4=CC(O)CCC4(C)C3CCC12C` (configuration not stated): the melting point is 200 to 201 °C.

On to `O=C(C=Cc1ccc(-c2ccc([N+](=O)[O-])cc2)o1)c1ccccc1`, for which the melting point fell in the range of 157 to 158 °C.

The compound `OCC(O)COc1ccccc1` (configuration not stated) yielded a melting point of 62.8 °C.

As for `CC1CCC(C(C)C)C(=O)C1` (single isomer, unassigned; (-)), the melting point is -6 °C.

Take `CC(C)(C)c1cc(O)cc(C(C)(C)C)c1`: the melting point came to 88 °C.

In turn, `Cc1nc2scc(-c3ccccc3)c2c(=O)n1NC(=O)c1ccc(F)cc1` showed a melting point of 138 to 140 °C.

Turning to `Nc1nc(SCc2ccc([N+](=O)[O-])cc2)c2ncn(C3OC(CO)C(O)C3O)c2n1` (configuration not stated), the melting point was in the range of 203 to 205 °C.

As to `C=CC1(C(C)CCC)C(=O)NC(=O)NC1=O` (configuration not stated), the melting point worked out at 90 °C.

`COc1ccc2occc2c1` gave a melting point of 31 to 33 °C.

The compound `O=C(N[C@@H](Cc1ccccc1Br)C(=O)O)OCC1c2ccccc2-c2ccccc21` returned a melting point of 168 °C.

For the compound `Nc1cc(F)ccc1C(F)(F)F`, the melting point stood at 31 °C.

Regarding `Cc1ccc(Cl)c(C)c1`, the melting point is -32.5 °C.

`CN1C(=O)CN=C(c2ccccc2)c2cc([N+](=O)[O-])ccc21`: the melting point was determined as 157 °C.

Take `Oc1ccc(Br)c(Cl)c1`: the melting point stood at 66 °C.

With `c1ccc(CNc2ccccc2)cc1`, the melting point worked out at 37.5 °C.

`Cc1nc([N+](=O)[O-])c(Br)[nH]1` yielded a melting point of 256 to 257 °C.

`Cn1nc(C(=O)Cl)c2ccccc21` showed a melting point of 126 °C.

Consider `Cc1ccccc1C(C)(C)C`, for which the melting point was -50 °C.
